Measured values: article PMC5218480 (PLoS ONE, 2017)

System: MV-4-11 cells
Experiment: Gene expression microarray analysis (Affymetrix PrimeView) and GSEA
Type: cell-based, human
Parameters: RFU PODN (11730768_x_at) / Fold change /veh PODN (11730768_x_at) / RFU LINC00158 (11744669_a_at) / Fold change /veh LINC00158 (11744669_a_at) / RFU DUSP10 (11751237_a_at) / Fold change /veh DUSP10 (11751237_a_at) / RFU ID3 (11757404_x_at) / Fold change /veh ID3 (11757404_x_at) / RFU PLEKHG5 (11737974_s_at) / Fold change /veh PLEKHG5 (11737974_s_at) / RFU LRRC4B (11730491_at) / Fold change /veh LRRC4B (11730491_at) / RFU GIMAP4 (11747438_a_at) / Fold change /veh GIMAP4 (11747438_a_at) / RFU KRT8 (11758183_x_at) / Fold change /veh KRT8 (11758183_x_at) / RFU CNN1 (11734310_a_at) / Fold change /veh CNN1 (11734310_a_at) / RFU VPS37D (11726825_at) / Fold change /veh VPS37D (11726825_at) / RFU C10orf10 (11716522_x_at) / Fold change /veh C10orf10 (11716522_x_at) / RFU KIR2DL2 /// KIR2DL4 /// KIR2DL5A /// KIR2DL5B /// KIR2DS1 /// KIR2DS2 /// KIR2DS3 /// KIR2DS4 /// KIR3DL3 /// KIR3DL3 /// KIR3DS1 (11738374_at) / Fold change /veh KIR2DL2 /// KIR2DL4 /// KIR2DL5A /// KIR2DL5B /// KIR2DS1 /// KIR2DS2 /// KIR2DS3 /// KIR2DS4 /// KIR3DL3 /// KIR3DL3 /// KIR3DS1 (11738374_at) / RFU C1QL1 (11718748_at) / Fold change /veh C1QL1 (11718748_at) / RFU TMPRSS4 (11747572_a_at) / Fold change /veh TMPRSS4 (11747572_a_at) / RFU HAMP (11756126_x_at) / Fold change /veh HAMP (11756126_x_at) / RFU RNFT2 (11725882_a_at) / Fold change /veh RNFT2 (11725882_a_at) / RFU NR4A2 (11747474_a_at) / Fold change /veh NR4A2 (11747474_a_at) / RFU ABCC12 (11746883_a_at) / Fold change /veh ABCC12 (11746883_a_at) / RFU TMEM136 (11760407_x_at) / Fold change /veh TMEM136 (11760407_x_at) / RFU CLDN22 /// WWC2 (11732394_at) / Fold change /veh CLDN22 /// WWC2 (11732394_at) / RFU HLA-DPB1 (11760878_x_at) / Fold change /veh HLA-DPB1 (11760878_x_at) / RFU SPINT1 (11716480_a_at) / Fold change /veh SPINT1 (11716480_a_at) / RFU GAP43 (11754022_s_at) / Fold change /veh GAP43 (11754022_s_at) / RFU A4GNT (11735810_at) / Fold change /veh A4GNT (11735810_at) / RFU PRB3 (11715151_x_at) / Fold change /veh PRB3 (11715151_x_at) / RFU TUBB4B (11761932_at) / Fold change /veh TUBB4B (11761932_at) / RFU CAPN14 (11732068_a_at) / Fold change /veh CAPN14 (11732068_a_at) / RFU TMCC2 (11721928_a_at) / Fold change /veh TMCC2 (11721928_a_at) / RFU IRGQ (11745062_a_at) / Fold change /veh IRGQ (11745062_a_at) / RFU FAM174B (11720279_a_at) / Fold change /veh FAM174B (11720279_a_at) / RFU TMPRSS4 (11748680_a_at) / Fold change /veh TMPRSS4 (11748680_a_at) / RFU FAM212B (11763350_a_at) / Fold change /veh FAM212B (11763350_a_at) / RFU PLEKHG5 (11743358_a_at) / Fold change /veh PLEKHG5 (11743358_a_at) / RFU ZSCAN30 (11745921_a_at) / Fold change /veh ZSCAN30 (11745921_a_at) / RFU CMKLR1 (11741424_a_at) / Fold change /veh CMKLR1 (11741424_a_at) / RFU LOC101060620 /// MAPK8IP1 (11723275_at) / Fold change /veh LOC101060620 /// MAPK8IP1 (11723275_at) / RFU SPTSSB (11747773_x_at) / Fold change /veh SPTSSB (11747773_x_at) / RFU PRSS12 (11739890_at) / Fold change /veh PRSS12 (11739890_at) / RFU BIN1 (11741810_x_at) / Fold change /veh BIN1 (11741810_x_at) / RFU WNT11 (11732464_a_at) / Fold change /veh WNT11 (11732464_a_at) / RFU C10orf10 (11716521_a_at) / Fold change /veh C10orf10 (11716521_a_at) / RFU C5orf56 (11738089_at) / Fold change /veh C5orf56 (11738089_at) / RFU CYB561 (11721691_x_at) / Fold change /veh CYB561 (11721691_x_at) / RFU ANKRD19P (11752326_a_at) / Fold change /veh ANKRD19P (11752326_a_at) / RFU OR2T12 /// OR2T33 /// OR2T8 (11738714_s_at) / Fold change /veh OR2T12 /// OR2T33 /// OR2T8 (11738714_s_at) / RFU VCAN (11748164_a_at) / Fold change /veh VCAN (11748164_a_at) / RFU JSRP1 (11732532_at) / Fold change /veh JSRP1 (11732532_at) / RFU KRTAP10-11 (11738290_x_at) / Fold change /veh KRTAP10-11 (11738290_x_at) / RFU MYO3A (11730013_a_at) / Fold change /veh MYO3A (11730013_a_at) / RFU EBF3 (11725865_a_at) / Fold change /veh EBF3 (11725865_a_at) / RFU CAMK2N1 (11719241_x_at) / Fold change /veh CAMK2N1 (11719241_x_at) / RFU C5orf56 (11738088_a_at) / Fold change /veh C5orf56 (11738088_a_at) / RFU OLFML3 (11715873_a_at) / Fold change /veh OLFML3 (11715873_a_at) / RFU LOC100653217 /// NTM (11731650_a_at) / Fold change /veh LOC100653217 /// NTM (11731650_a_at) / RFU MAPK11 (11762145_a_at) / Fold change /veh MAPK11 (11762145_a_at) / RFU FIZ1 (11724087_x_at) / Fold change /veh FIZ1 (11724087_x_at) / RFU OASL (11726364_x_at) / Fold change /veh OASL (11726364_x_at) / RFU SOX15 (11748057_x_at) / Fold change /veh SOX15 (11748057_x_at) / RFU CD79A (11719716_a_at) / Fold change /veh CD79A (11719716_a_at) / RFU HIST1H1D (11736915_at) / Fold change /veh HIST1H1D (11736915_at) / RFU CASKIN2 (11723855_a_at) / Fold change /veh CASKIN2 (11723855_a_at) / RFU LOC730098 (11760151_x_at) / Fold change /veh LOC730098 (11760151_x_at) / RFU OR4N2 (11742367_at) / Fold change /veh OR4N2 (11742367_at) / RFU PRRT2 (11749266_a_at) / Fold change /veh PRRT2 (11749266_a_at) / RFU SNX32 (11753110_a_at) / Fold change /veh SNX32 (11753110_a_at) / RFU CDHR5 (11726645_a_at) / Fold change /veh CDHR5 (11726645_a_at) / RFU RCAN1 (11760418_a_at) / Fold change /veh RCAN1 (11760418_a_at) / RFU FAM167A (11723789_a_at) / Fold change /veh FAM167A (11723789_a_at) / RFU FAM26E (11764081_at) / Fold change /veh FAM26E (11764081_at) / RFU ISYNA1 (11749810_s_at) / Fold change /veh ISYNA1 (11749810_s_at) / RFU ACY1 (11761880_at) / Fold change /veh ACY1 (11761880_at) / RFU 11764098_at / Fold change /veh 11764098_at / RFU SAMD14 (11745864_x_at) / Fold change /veh SAMD14 (11745864_x_at) / RFU NPB (11741838_a_at) / Fold change /veh NPB (11741838_a_at) / RFU TMPRSS6 (11731388_a_at) / Fold change /veh TMPRSS6 (11731388_a_at) / RFU KRTAP10-2 (11738614_at) / Fold change /veh KRTAP10-2 (11738614_at) / RFU ARHGAP8 /// PRR5-ARHGAP8 (11727945_x_at) / Fold change /veh ARHGAP8 /// PRR5-ARHGAP8 (11727945_x_at) / RFU KRTAP5-7 /// NADSYN1 (11734609_at) / Fold change /veh KRTAP5-7 /// NADSYN1 (11734609_at) / RFU RASL12 (11751679_a_at) / Fold change /veh RASL12 (11751679_a_at) / RFU CDKN2B (11736163_a_at) / Fold change /veh CDKN2B (11736163_a_at) / RFU PRF1 (11729649_at) / Fold change /veh PRF1 (11729649_at) / RFU, ZNF638 /// ZNF638-IT1 / Fold change vs veh, ZNF638 /// ZNF638-IT1 / RFU, PANK3 / Fold change vs veh, PANK3 / RFU, SH3YL1 / Fold change vs veh, SH3YL1 / RFU, ZEB2 / Fold change vs veh, ZEB2 / RFU, NRIP1 / Fold change vs veh, NRIP1 / RFU, PTTG1IP / Fold change vs veh, PTTG1IP / RFU, CAPN2 / Fold change vs veh, CAPN2 / RFU, MED14 / Fold change vs veh, MED14 / RFU, SNORA58 / Fold change vs veh, SNORA58 / RFU, C1orf63 / Fold change vs veh, C1orf63 / RFU, LRRFIP1 / Fold change vs veh, LRRFIP1 / RFU, NDUFAF7 / Fold change vs veh, NDUFAF7 / RFU, SLC12A2 / Fold change vs veh, SLC12A2 / RFU, IBTK / Fold change vs veh, IBTK / RFU, ESF1 / Fold change vs veh, ESF1 / Fold change vs veh, TMEM50B / RFU, TAOK1 / Fold change vs veh, TAOK1 / RFU, ACBD3 / Fold change vs veh, ACBD3 / RFU, TMA16 / Fold change vs veh, TMA16 / RFU, RWDD3 / Fold change vs veh, RWDD3 / RFU, BCAT1 / Fold change vs veh, BCAT1 / RFU, EDEM3 / Fold change vs veh, EDEM3 / RFU, TMEM33 / Fold change vs veh, TMEM33 / RFU, WDR75 / Fold change vs veh, WDR75 / RFU, AHCTF1 / Fold change vs veh, AHCTF1 / RFU, TFRC / Fold change vs veh, TFRC / RFU, ZDHHC17 / Fold change vs veh, ZDHHC17 / RFU, NOM1 / Fold change vs veh, NOM1 / RFU, ARL8B / Fold change vs veh, ARL8B / RFU, ZBTB11 / Fold change vs veh, ZBTB11 / RFU, TAMM41 / Fold change vs veh, TAMM41 / RFU, KIAA1704 /// LOC100996395 / Fold change vs veh, KIAA1704 /// LOC100996395 / RFU, ING1 / Fold change vs veh, ING1 / RFU, TRMT61B / Fold change vs veh, TRMT61B / RFU, FUBP3 / Fold change vs veh, FUBP3 / RFU, TP53 / Fold change vs veh, TP53 / RFU, TNKS2 / Fold change vs veh, TNKS2 / RFU, ZFP14 / Fold change vs veh, ZFP14 / RFU, ACTR2 / Fold change vs veh, ACTR2 / RFU, PPP3R1 / Fold change vs veh, PPP3R1 / RFU, PIK3R1 / Fold change vs veh, PIK3R1 / RFU, HNRNPA1 / Fold change vs veh, HNRNPA1 / RFU, RNF170 / Fold change vs veh, RNF170 / RFU, ZNF28 / Fold change vs veh, ZNF28 / RFU, RNGTT / Fold change vs veh, RNGTT / RFU, OGT / Fold change vs veh, OGT / RFU, BRD1 / Fold change vs veh, BRD1 / RFU, MARS / Fold change vs veh, MARS / RFU, ZNF655 / Fold change vs veh, ZNF655 / RFU, FAHD1 / Fold change vs veh, FAHD1 / RFU, BDP1 / Fold change vs veh, BDP1 / RFU, LRRCC1 / Fold change vs veh, LRRCC1 / RFU, ARID1A / Fold change vs veh, ARID1A / RFU, ZNF146 / Fold change vs veh, ZNF146 / RFU, ZNF330 / Fold change vs veh, ZNF330 / RFU, GPN3 / Fold change vs veh, GPN3 / RFU, C9orf123 / Fold change vs veh, C9orf123 / RFU, N4BP2L2 / Fold change vs veh, N4BP2L2 / RFU, ARFIP1 / Fold change vs veh, ARFIP1 / RFU, FAM179B / Fold change vs veh, FAM179B / RFU, BCL10 / Fold change vs veh, BCL10 / RFU, UHRF1BP1L / Fold change vs veh, UHRF1BP1L / RFU, BET1 / Fold change vs veh, BET1 / RFU, CNOT2 / Fold change vs veh, CNOT2 / RFU, ZNF268 / Fold change vs veh, ZNF268 / Fold change vs veh, ZNF507 / RFU, DGCR2 / Fold change vs veh, DGCR2 / RFU, WDSUB1 / Fold change vs veh, WDSUB1 / Fold change vs veh, HSP90B1 /// MIR3652 / RFU, ADSS / Fold change vs veh, ADSS / RFU, GK / Fold change vs veh, GK / RFU, ZNF148 / Fold change vs veh, ZNF148 / RFU, TAF9 / Fold change vs veh, TAF9 / RFU, SLC1A5 / Fold change vs veh, SLC1A5 / RFU, SLMO2 / Fold change vs veh, SLMO2 / RFU, ABCC4 / Fold change vs veh, ABCC4 / RFU, LOC101060439 /// RAP1B / Fold change vs veh, LOC101060439 /// RAP1B / RFU, RFX7 / Fold change vs veh, RFX7 / RFU, GTPBP10 / Fold change vs veh, GTPBP10 / RFU, CNEP1R1 / Fold change vs veh, CNEP1R1 / RFU, BIVM-ERCC5 /// ERCC5 / Fold change vs veh, BIVM-ERCC5 /// ERCC5 / RFU, ILF3 / Fold change vs veh, ILF3 / RFU 11762660_at / Fold change /veh 11762660_at / RFU VCAN (11757783_s_at) / Fold change /veh VCAN (11757783_s_at) / RFU DDX43 (11728927_at) / Fold change /veh DDX43 (11728927_at) / RFU KRT8 (11758188_x_at) / Fold change /veh KRT8 (11758188_x_at) / RFU NKD1 (11759106_at) / Fold change /veh NKD1 (11759106_at) / RFU SRD5A1 (11742802_a_at) / Fold change /veh SRD5A1 (11742802_a_at) / RFU TPSAB1 /// TPSB2 (11721975_s_at) / Fold change /veh TPSAB1 /// TPSB2 (11721975_s_at) / RFU GSTM3 (11746129_a_at) / Fold change /veh GSTM3 (11746129_a_at) / RFU IL23R (11737362_x_at) / Fold change /veh IL23R (11737362_x_at) / RFU TMEM51 (11727254_a_at) / Fold change /veh TMEM51 (11727254_a_at) / RFU PIWIL2 (11732686_x_at) / Fold change /veh PIWIL2 (11732686_x_at) / RFU ORM1 (11744905_x_at) / Fold change /veh ORM1 (11744905_x_at) / RFU CCDC152 (11743942_at) / Fold change /veh CCDC152 (11743942_at) / RFU ECM1 (11717891_a_at) / Fold change /veh ECM1 (11717891_a_at) / RFU IL23R (11748794_a_at) / Fold change /veh IL23R (11748794_a_at) / RFU TNFAIP8L3 (11732012_x_at) / Fold change /veh TNFAIP8L3 (11732012_x_at) / RFU MBOAT4 (11741988_at) / Fold change /veh MBOAT4 (11741988_at) / RFU 11764193_at / Fold change /veh 11764193_at / RFU TMEM53 (11763286_at) / Fold change /veh TMEM53 (11763286_at) / RFU MAGEB2 (11727129_at) / Fold change /veh MAGEB2 (11727129_at) / RFU TMEM200A (11744735_a_at) / Fold change /veh TMEM200A (11744735_a_at) / RFU CCDC152 (11751479_a_at) / Fold change /veh CCDC152 (11751479_a_at) / RFU FAM211A (11726209_a_at) / Fold change /veh FAM211A (11726209_a_at) / RFU RGS16 (11746705_a_at) / Fold change /veh RGS16 (11746705_a_at) / RFU VCAN (11755009_s_at) / Fold change /veh VCAN (11755009_s_at) / RFU RHOB (11743442_s_at) / Fold change /veh RHOB (11743442_s_at) / RFU RGS16 (11720943_a_at) / Fold change /veh RGS16 (11720943_a_at) / RFU RGS16 (11720944_at) / Fold change /veh RGS16 (11720944_at) / RFU, VPS4B / Fold change vs veh, VPS4B / RFU, CREB1 / Fold change vs veh, CREB1 / RFU, DNAJC13 / Fold change vs veh, DNAJC13 / RFU, GNAQ / Fold change vs veh, GNAQ / RFU, CDK5R1 / Fold change vs veh, CDK5R1 / RFU, ZRANB3 / Fold change vs veh, ZRANB3 / RFU, CUL4A / Fold change vs veh, CUL4A / RFU, CCNY / Fold change vs veh, CCNY / RFU, UFL1 / Fold change vs veh, UFL1 / RFU, COG3 / Fold change vs veh, COG3 / RFU, DIAPH2 / Fold change vs veh, DIAPH2 / RFU, SKA2 / Fold change vs veh, SKA2 / RFU, AFF3 / Fold change vs veh, AFF3 / RFU, LMF1 / Fold change vs veh, LMF1 / RFU, IPO11 / Fold change vs veh, IPO11 / RFU, DFFB / Fold change vs veh, DFFB / RFU, FOXP1 / Fold change vs veh, FOXP1 / RFU, CARD8 / Fold change vs veh, CARD8 / RFU, STRN3 / Fold change vs veh, STRN3 / RFU, ADK / Fold change vs veh, ADK / RFU, RASSF2 / Fold change vs veh, RASSF2 / RFU, WIPF1 / Fold change vs veh, WIPF1 / RFU, LARP1B / Fold change vs veh, LARP1B / RFU, RASA1 / Fold change vs veh, RASA1 / RFU, RB1 / Fold change vs veh, RB1 / RFU, PPFIA1 / Fold change vs veh, PPFIA1 / RFU, MAT2A / Fold change vs veh, MAT2A / RFU, CCT5 / Fold change vs veh, CCT5 / RFU, WDR92 / Fold change vs veh, WDR92 / RFU, CUX1 / Fold change vs veh, CUX1 / RFU, TTC7A / Fold change vs veh, TTC7A / RFU, TMEM135 / Fold change vs veh, TMEM135 / RFU, DEPTOR / Fold change vs veh, DEPTOR / RFU, CPM / Fold change vs veh, CPM / RFU, DNAJB6 / Fold change vs veh, DNAJB6 / RFU, CACNA2D3 / Fold change vs veh, CACNA2D3 / RFU, DTX4 / Fold change vs veh, DTX4 / RFU, TFCP2 / Fold change vs veh, TFCP2 / RFU, GMCL1 /// GMCL1P1 / Fold change vs veh, GMCL1 /// GMCL1P1 / RFU, AEBP2 / Fold change vs veh, AEBP2 / RFU, SNHG1 /// SNORD22 /// SNORD25 /// SNORD26 /// SNORD27 /// SNORD28 /// SNORD29 /// SNORD31 / Fold change vs veh, SNHG1 /// SNORD22 /// SNORD25 /// SNORD26 /// SNORD27 /// SNORD28 /// SNORD29 /// SNORD31 / Fold change (Aza/veh), C12orf56 (ProbeSet 11735607_a_at) / Fold change (ACY-1035/veh), C12orf56 (ProbeSet 11735607_a_at) / Fold change (Aza/veh), FGFR1OP (ProbeSet 11751329_s_at) / Fold change (ACY-1035/veh), FGFR1OP (ProbeSet 11751329_s_at) / Fold change (Aza/veh), VPS36 (ProbeSet 11739960_a_at) / Fold change (ACY-1035/veh), VPS36 (ProbeSet 11739960_a_at) / RFU SYPL1 (11715823_x_at) / Fold change /veh SYPL1 (11715823_x_at) / RFU IGFBP7 (11715501_s_at) / Fold change /veh IGFBP7 (11715501_s_at) / RFU REEP3 (11722064_at) / Fold change /veh REEP3 (11722064_at) / RFU IGLL1 (11728026_x_at) / Fold change /veh IGLL1 (11728026_x_at): dose or concentration left out as unconfirmed
Conditions: ProbeSet 11741123_x_at; LIST D

SMILES: Nc1ccc(-c2cccs2)cc1NC(=O)c1ccc2c(c1)cc(C1CC1)n2CCN1CCOCC1 [ACY-1035]
- RFU, ADK: 253.83 RFU
